From PubChem BioAssay AID248 (DTP/NCI, 2004)
Values joined by “and” are separate entries in the source; they are usually repeats but may differ in a detail not shown here. Equal entries are not always repeated. Toxic doses and inconclusive results are not listed. Rule as the data show it: active = T/C of 150% or more; inactive = T/C below 125%.

Tested on: L1210 leukemia ip in BDF1 mice, survival T/C
Assay: NCI In Vivo Anticancer Drug Screen. Data for tumor model L1210 Leukemia (intraperitoneal) in B6D2F1 (BDF1) mice
Conditions: endpoint: mean survival time, higher = longer survival
Summary of the method: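 Read-out is survival time, reported as the treated-group measurement over the vehicle-control measurement.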

[1] = dose: 100.0 mg/kg/injection, schedule: Q04DX002 (ip), vehicle: saline with Tween-80
[2] = dose: 200.0 mg/kg/injection, schedule: Q04DX002 (ip), vehicle: saline with Tween-80
[3] = dose: 100.0 mg/kg/injection, schedule: Q01DX009 (ip), vehicle: Klucel (hydroxypropylcellulose) (HPC)
[4] = dose: 100.0 mg/kg/injection, schedule: Q04DX003 (ip), vehicle: Klucel (hydroxypropylcellulose) (HPC)
[5] = dose: 200.0 mg/kg/injection, schedule: Q01DX009 (ip), vehicle: Klucel (hydroxypropylcellulose) (HPC)
[6] = dose: 200.0 mg/kg/injection, schedule: Q04DX003 (ip), vehicle: Klucel (hydroxypropylcellulose) (HPC)
[7] = dose: 400.0 mg/kg/injection, schedule: Q01DX009 (ip), vehicle: Klucel (hydroxypropylcellulose) (HPC)
[8] = dose: 400.0 mg/kg/injection, schedule: Q04DX003 (ip), vehicle: Klucel (hydroxypropylcellulose) (HPC)
[9] = dose: 100.0 mg/kg/injection, schedule: Q01DX001 (ip), vehicle: saline
[10] = dose: 200.0 mg/kg/injection, schedule: Q01DX001 (ip), vehicle: saline
[11] = dose: 400.0 mg/kg/injection, schedule: Q01DX001 (ip), vehicle: saline
[12] = dose: 100.0 mg/kg/injection, schedule: Q01DX009 (ip), vehicle: saline
[13] = dose: 100.0 mg/kg/injection, schedule: Q04DX003 (ip), vehicle: saline
[14] = dose: 200.0 mg/kg/injection, schedule: Q01DX009 (ip), vehicle: saline
[15] = dose: 200.0 mg/kg/injection, schedule: Q04DX003 (ip), vehicle: saline
[16] = dose: 400.0 mg/kg/injection, schedule: Q01DX009 (ip), vehicle: saline
[17] = dose: 100.0 mg/kg/injection, schedule: Q01DX009 (ip), vehicle: saline with Tween-80
[18] = dose: 200.0 mg/kg/injection, schedule: Q01DX009 (ip), vehicle: saline with Tween-80
[19] = dose: 50.0 mg/kg/injection, schedule: Q01DX001 (ip), vehicle: carboxymethylcellulose (CMC)
[20] = dose: 100.0 mg/kg/injection, schedule: Q01DX001 (ip), vehicle: carboxymethylcellulose (CMC)
[21] = dose: 200.0 mg/kg/injection, schedule: Q01DX001 (ip), vehicle: carboxymethylcellulose (CMC)
[22] = dose: 25.0 mg/kg/injection, schedule: Q01DX009 (ip), vehicle: Klucel (hydroxypropylcellulose) (HPC)
[23] = dose: 100.0 mg/kg/injection, schedule: Q04DX003 (ip), vehicle: saline with Tween-80
[24] = dose: 200.0 mg/kg/injection, schedule: Q04DX003 (ip), vehicle: saline with Tween-80
[25] = dose: 400.0 mg/kg/injection, schedule: Q01DX009 (ip), vehicle: saline with Tween-80
[26] = dose: 400.0 mg/kg/injection, schedule: Q04DX003 (ip), vehicle: saline with Tween-80
[27] = dose: 100.0 mg/kg/injection, schedule: Q01DX001 (ip), vehicle: saline with Tween-80
[28] = dose: 200.0 mg/kg/injection, schedule: Q01DX001 (ip), vehicle: saline with Tween-80
[29] = dose: 400.0 mg/kg/injection, schedule: Q01DX001 (ip), vehicle: saline with Tween-80
[30] = dose: 50.0 mg/kg/injection, schedule: Q04DX003 (ip), vehicle: saline
[31] = dose: 400.0 mg/kg/injection, schedule: Q04DX002 (ip), vehicle: saline with Tween-80

Measured: T/C

c1ccc2n[nH]nc2c1
inactive: dose: 50.0 mg/kg/injection, schedule: Q04DX002 (ip), vehicle: saline with Tween-80 95 % of control | [1] 106 % of control | [2] 98 % of control

COc1ccccc1NC(=O)Nc1ccccc1F
inactive: [3] 100 % of control | [4] 89 % of control | [5] 105 % of control | [6] 89 % of control | [7] 97 % of control | [8] 97 % of control

CCCCNS(=O)(=O)c1ccc(OC)c(NC(=O)c2ccc(C(=O)Nc3cc(S(=O)(=O)NCCCC)ccc3OC)cc2)c1
inactive: [9] 105 % of control | [10] 94 % of control | [11] 94 % of control

Cc1nnnn1C1CCCCC1I (stereo not drawn)
inactive: dose: 10.0 mg/kg/injection, schedule: Q01DX001 (ip), vehicle: other 102 % of control | dose: 20.0 mg/kg/injection, schedule: Q01DX001 (ip), vehicle: other 88 % of control

OC1COCOC1 (tested in a mixture with another compound)
inactive: [12] 104 % of control | [13] 105 % of control | [14] 104 % of control | [15] 102 % of control | [16] 111 % of control | dose: 400.0 mg/kg/injection, schedule: Q04DX003 (ip), vehicle: saline 109 % of control

CCCCCCCCCCOS(C)=O (stereo not drawn)
inactive: dose: 50.0 mg/kg/injection, schedule: Q01DX009 (ip), vehicle: saline with Tween-80 100 % of control | [17] 92 % of control | [18] 88 % of control

Cc1ccc(S(=O)(=O)O)cn1
inactive: [9] 94 % of control | [10] 97 % of control | [11] 92 % of control

C=CC(O)CCCCCC (stereo not drawn)
inactive: [19] 97 % of control | [20] 101 % of control | [21] 95 % of control | dose: 400.0 mg/kg/injection, schedule: Q01DX001 (ip), vehicle: carboxymethylcellulose (CMC) 103 % of control

NC(CSS(=O)(=O)O)=NCc1ccsc1
inactive: dose: 6.25 mg/kg/injection, schedule: Q01DX009 (ip), vehicle: Klucel (hydroxypropylcellulose) (HPC) 96 % of control | dose: 12.5 mg/kg/injection, schedule: Q01DX009 (ip), vehicle: Klucel (hydroxypropylcellulose) (HPC) 104 % of control | dose: 12.5 mg/kg/injection, schedule: Q04DX002 (ip), vehicle: Klucel (hydroxypropylcellulose) (HPC) 100 % of control | [22] 101 % of control | dose: 25.0 mg/kg/injection, schedule: Q04DX002 (ip), vehicle: Klucel (hydroxypropylcellulose) (HPC) 95 % of control

CCCC1(C)NC(=O)NC1=O (stereo not drawn)
inactive: [17] 97 % of control | [23] 110 % of control | [18] 98 % of control | [24] 104 % of control | [25] 93 % of control | [26] 102 % of control

COc1cc(/C=N/NC(=O)Cc2cccc3ccccc23)ccc1O
inactive: [3] 109 % of control | dose: 100.0 mg/kg/injection, schedule: Q04DX002 (ip), vehicle: Klucel (hydroxypropylcellulose) (HPC) 107 % of control | [5] 93 % of control | dose: 200.0 mg/kg/injection, schedule: Q04DX002 (ip), vehicle: Klucel (hydroxypropylcellulose) (HPC) 104 % of control | [7] 98 % of control | dose: 400.0 mg/kg/injection, schedule: Q04DX002 (ip), vehicle: Klucel (hydroxypropylcellulose) (HPC) 96 % of control

O=C1OC(c2ccccc2)=C/C1=C\c1[nH]c(=S)[nH]c(=O)c1Cc1ccc(Cl)cc1
inactive: [27] 102 % of control | [28] 89 % of control | [29] 90 % of control

C1CCC(OB2OB(OC3CCCCC3)OB(OC3CCCCC3)O2)CC1
inactive: [30] 93 % of control | [9] 93 % of control | [12] 97 % of control | [13] 98 % of control | [10] 98 % of control | [14] 110 % of control | [15] 103 % of control | [11] 86 % of control | [16] 111 % of control

CCCC/C=C(\C)CCCCCCCCC (tested in a mixture with another compound)
inactive: [23] 90 % of control | [24] 89 % of control | [26] 98 % of control

O=C1/C(=C/c2ccco2)CCC/C1=C\c1ccco1
inactive: dose: 100.0 mg/kg/injection, schedule: Q01DX001 (ip), vehicle: acetone 95 % of control | [1] 92 % of control | dose: 200.0 mg/kg/injection, schedule: Q01DX001 (ip), vehicle: acetone 87 % of control | [2] 95 % of control | dose: 400.0 mg/kg/injection, schedule: Q01DX001 (ip), vehicle: acetone 97 % of control | [31] 98 % of control

COc1ccccc1NC(=O)Nc1ccc(S(N)(=O)=O)cc1
inactive: [27] 97 % of control | [17] 101 % of control and 106 % of control | [1] 98 % of control and 103 % of control | [23] 94 % of control | [28] 111 % of control | [18] 98 % of control and 116 % of control | [2] 104 % of control | [24] 90 % of control | [29] 97 % of control | [25] 97 % of control and 98 % of control | [31] 95 % of control | [26] 100 % of control

Cc1c(NC(=O)Nc2cccc(C(F)(F)F)c2)c(=O)n(-c2ccccc2)n1C
inactive: [22] 88 % of control | dose: 50.0 mg/kg/injection, schedule: Q01DX009 (ip), vehicle: Klucel (hydroxypropylcellulose) (HPC) 86 % of control | [5] 96 % of control

COC(=O)C(Br)c1ccc([N+](=O)[O-])cc1 (stereo not drawn)
inactive: dose: 12.5 mg/kg/injection, schedule: Q01DX009 (ip), vehicle: saline with Tween-80 101 % of control | dose: 12.5 mg/kg/injection, schedule: Q04DX003 (ip), vehicle: saline 98 % of control | dose: 25.0 mg/kg/injection, schedule: Q01DX009 (ip), vehicle: saline with Tween-80 104 % of control | dose: 25.0 mg/kg/injection, schedule: Q04DX003 (ip), vehicle: saline 101 % of control | [30] 93 % of control

CC(=O)OC(c1ccnc2ccccc12)C1CC2CCN1CC2 (stereo not drawn)
inactive: [19] 97 % of control | [20] 97 % of control | [21] 95 % of control

CCC(=O)/C=C/c1ccc(Cl)cc1
inactive: [3] 98 % of control | [4] 98 % of control | [5] 97 % of control | [6] 104 % of control | [7] 97 % of control | [8] 102 % of control

COc1ccccc1CCC=O
inactive: dose: 50.0 mg/kg/injection, schedule: Q01DX001 (ip), vehicle: saline 96 % of control | [9] 96 % of control | [10] 102 % of control | [11] 102 % of control

CCCCCCCC(=O)Nc1c(C)cc(C)cc1C
inactive: [23] 95 % of control | [24] 92 % of control | [26] 93 % of control

O=S(CS(=O)c1ccccc1)c1ccccc1 (stereo not drawn)
inactive: [9] 100 % of control | [10] 94 % of control | [11] 100 % of control

O=C(Nc1ccc(S(=O)(=O)Nc2ccc(N=Nc3ccccc3)cc2)cc1)C(SC1=NC=NC2=NC=NC21)(SC1=NC=NC2=NC=NC21)SC1=NC=NC2=NC=NC21 (stereo not drawn)
inactive: dose: 75.0 mg/kg/injection, schedule: Q04DX003 (ip), vehicle: saline 104 % of control | dose: 150.0 mg/kg/injection, schedule: Q04DX003 (ip), vehicle: saline 109 % of control | dose: 300.0 mg/kg/injection, schedule: Q04DX003 (ip), vehicle: saline 100 % of control

CC(C)CCSc1nc(N)nc2nc[nH]c12
inactive: dose: 62.5 mg/kg/injection, schedule: Q01DX Z (ip), vehicle: carboxymethylcellulose (CMC) 122 % of control | dose: 125.0 mg/kg/injection, schedule: Q01DX Z (ip), vehicle: carboxymethylcellulose (CMC) 107 % of control | dose: 250.0 mg/kg/injection, schedule: Q01DX Z (ip), vehicle: carboxymethylcellulose (CMC) 100 % of control
